Test results taken from article PMC4603705, “A bioinspired peptide scaffold with high antibiotic activity and low in vivo toxicity” (Scientific Reports, 2015).
In brackets after ≈: the same amount, converted by molar mass. Where two headings read alike, the source gives them in different places. Bridge positions count the residues as written; N and C are the ends. Square brackets hold non-standard residues; d marks the D form. Peptide text beside a SMILES is read from it. * marks the point of attachment. Decanoyl = CCCCCCCCCC(=O)*; Nonanoyl = CCCCCCCCC(=O)*; Dab = NCC[C@H](N)C(=O)O

Columns and labels:
P. aeruginosa ATTC 9027 = format: cell-based, Pseudomonas aeruginosa; details: for MIC P. a.: Supplementary Table S1, P. aeruginosa; for MIC P. aeruginosa: ATTC 9027
Description: (§1) MICs were measured after 18–20 h of incubation in sterile 96-well plates (Corning Costar 3598 microtiter plates) in Mueller Hinton Broth (MHB) culture medium, (Difco, USA), according to well known in vitro protocols. Bacterial strains in Table 1 were: P. aeruginosa ATTC 9027, E. coli ATTC 8739, S. aureus ATTC 6538, and E. faecalis ATTC 29212. MICs shown in table 4 were performed by Mary Conrad at Cubist Pharmaceuticals (Lexington, MA) in non-binding surface plates.

S. aureus ATTC 6538 = assay: microbe, parasite or virus in culture; format: cell-based, Staphylococcus aureus; details: for MIC S. a.: Supplementary Table S1, S. aureus; for MIC S. aureus: ATTC 6538
Description: as §1

E. coli ATTC 8739 = format: cell-based, Escherichia coli; details: for MIC E. c.: Supplementary Table S1, E. coli; for MIC E. coli: ATTC 8739
Description: as §1

Row | MIC S. a. (S. aureus ATTC 6538) [µg/mL] | MIC P. a. (P. aeruginosa ATTC 9027) [µg/mL] | MIC E. c. (E. coli ATTC 8739) [µg/mL] | Molecule | also measured
1 | 128 | 32 | 16 | C9-Lys-Thr-Dab-Cys-Dab-Phe-Leu-Lys-Dab-Cys [Analog 33] | –
2 | 32 | – | 64 | C9-Arg-Thr-Dab-Cys-Dab-Phe-Leu-Arg-Dab-Cys [Analog 23] | MIC P. a. (P. aeruginosa ATTC 9027; listed as 23): 128 µg/mL
3 | > 128 | > 128 | > 128 | C9-Arg-Thr-Dab-Cys-Dab-Gly-Gly-Arg-Dab-Cys [Analog 24] | –
4 | > 32 | – | – | C9-Arg(NO2)-Thr-Dab-Cys-Dab-Phe-Leu-Arg(NO2)-Dab-Cys [Analog 16] | –
5 | 32 | 16 | 8 | C9-Arg-Thr-Lys-Cys-Dab-Phe-Leu-Arg-Lys-Cys [Analog 32] | –
6 | 128 | 32 | 32 | C9-Arg-Thr-His-Cys-Dab-Phe-Leu-Arg-His-Cys [Analog 31] | –
7 | 32 | 16 | 8 | C9-Arg-Thr-Orn-Cys-Dab-Phe-Leu-Arg-Orn-Cys [Analog 34] | –
8 | 32 | 16 | 4 | C9-Dab-Thr-Dab-Cys-Dab-Phe-Met-Dab-Dab-Cys [Analog 19] | –
9 | 128 | > 128 | 64 | C9-Arg-Thr-Dab-Cys-Dab-Phe-Gly-Arg-Dab-Cys [Analog 26] | –
10 | > 32 | – | > 32 | C9-Dab-Thr-Dab-Cys-Dab-Phe-Met(O)-Dab-Dab-Cys [Analog 20] | –
11 | 64 | 64 | 32 | C9-Arg-Thr-Dab-Ser-Dab-Phe-Leu-Arg-Dab-Ser [Analog 18] | –

More lines, now with the values behind:

Row | Molecule | MIC S. a. (S. aureus ATTC 6538) [µg/mL] | MIC P. a. (P. aeruginosa ATTC 9027) [µg/mL] | MIC E. c. (E. coli ATTC 8739) [µg/mL] | also measured
12 | C9-Arg-Thr-Dab-Cys-Dab-Phe-Leu-Arg-Dab-Cys [Analog 17] | – | – | – | MIC P. a. (P. aeruginosa ATTC 9027; listed as 17): 16 µg/mL
13 | CCCCCCCCCC(=O)N[C@@H](CCCNC(=N)N)C(=O)N[C@H](C(=O)N[C@@H](CCN)C(=O)N[C@H]1CSSC[C@@H](C(N)=O)NC(=O)[C@H](CCN)NC(=O)[C@H](CCCNC(=N)N)NC(=O)[C@H](CC(C)C)NC(=O)[C@@H](Cc2ccccc2)NC(=O)[C@H](CCN)NC1=O)[C@@H](C)O [Analog 36, decanoyl-Arg-Thr-Dab-Cys-Dab-Phe-Leu-Arg-Dab-Cys] (Decanoyl-RT[Dab]C[Dab][dF]LR[Dab]C-NH2; disulfide 4-10) | – | – | – | MIC S. aureus (S. aureus ATTC 6538): 16 µg/mL (≈ 11.9 µM); MIC P. aeruginosa (P. aeruginosa ATTC 9027): 8 µg/mL (≈ 5.93 µM); MIC E. coli (E. coli ATTC 8739): 8 µg/mL (≈ 5.93 µM)
14 | C9-Arg-Thr-Dab-Cys-Dab-Leu-Leu-Arg-Dab-Cys [Analog 29] | 32 | 16 | 32 | –
15 | CCCCCCCCC(=O)N[C@@H](CCCNC(=N)N)C(=O)N[C@H](C(=O)N[C@@H](CCN)C(=O)N[C@H]1CSSC[C@@H](C(N)=O)NC(=O)[C@H](CCN)NC(=O)[C@H](CCN)NC(=O)[C@H](CC(C)C)NC(=O)[C@@H](Cc2ccccc2)NC(=O)[C@H](CCN)NC1=O)[C@@H](C)O [Analog 2, nonanoyl-Arg-Thr-Dab-Cys-Dab-Phe-Leu-Dab-Dab-Cys] (Nonanoyl-RT[Dab]C[Dab][dF]L[Dab][Dab]C-NH2; disulfide 4-10) | – | – | – | MIC S. aureus (S. aureus ATTC 6538): >32 µg/mL; MIC P. aeruginosa (P. aeruginosa ATTC 9027): 8 µg/mL (≈ 6.25 µM); MIC E. coli (E. coli ATTC 8739): 8 µg/mL (≈ 6.25 µM)
16 | C9-Arg-Thr-Dab-Cys-Dab-Gly-Leu-Arg-Dab-Cys [Analog 25] | > 128 | > 128 | > 128 | –
17 | C9-Arg-Thr-Dab-Cys-Dab-Leu-Thr-Arg-Dab-Cys [Analog 30] | > 128 | 32 | 32 | –
18 | C9-Dap[(C=NH)NH2]-Thr-Dab-Cys-Dab-Phe-Leu-Dap[(C=NH)NH2]-Dab-Cys [Analog 14] | 16 | 16 | 2 | –
19 | CCCCCCCCCC(=O)N[C@@H](CCN)C(=O)N[C@H](C(=O)N[C@@H](CCN)C(=O)N[C@H]1CSSC[C@H](C(N)=O)NC(=O)[C@H](CCN)NC(=O)[C@H](CCN)NC(=O)[C@H](CC(C)C)NC(=O)[C@@H](Cc2ccccc2)NC(=O)[C@H](CCN)NC1=O)[C@@H](C)O [Analog 37, decanoyl -Dab-Thr-Dab-Cys-Dab-Phe-Leu-Dab-Dab-Cys] (Decanoyl-[Dab]T[Dab]C[Dab][dF]L[Dab][Dab][dC]-NH2; disulfide 4-10) | – | – | – | MIC S. aureus (S. aureus ATTC 6538): 8 µg/mL (≈ 6.46 µM); MIC P. aeruginosa (P. aeruginosa ATTC 9027): 4 µg/mL (≈ 3.23 µM); MIC E. coli (E. coli ATTC 8739): 2 µg/mL (≈ 1.62 µM)
20 | CCCCCCCCC(=O)N[C@@H](CCCNC(=N)N)C(=O)N[C@H](C(=O)N[C@@H](CCN)C(=O)N[C@H]1CSSC[C@H](C(N)=O)NC(=O)[C@H](CCN)NC(=O)[C@H](CCCNC(=N)N)NC(=O)[C@H](CC(C)C)NC(=O)[C@@H](Cc2ccccc2)NC(=O)[C@H](CCN)NC1=O)[C@@H](C)O [Analog 13, nonanoyl-Arg-Thr-Dab-Cys-Dab-Phe-Leu-Arg-Dab-Cys] (Nonanoyl-RT[Dab]C[Dab][dF]LR[Dab][dC]-NH2; disulfide 4-10) | – | – | – | MIC S. aureus (S. aureus ATTC 6538): 16 µg/mL (≈ 12 µM); MIC P. aeruginosa (P. aeruginosa ATTC 9027): 8 µg/mL (≈ 5.99 µM); MIC E. coli (E. coli ATTC 8739): 4 µg/mL (≈ 2.99 µM)
21 | CCCCCCCCC(=O)N[C@@H](CCN)C(=O)N[C@H](C(=O)N[C@@H](CCCNC(=N)N)C(=O)N[C@H]1CSSC[C@@H](C(N)=O)NC(=O)[C@H](CCN)NC(=O)[C@H](CCN)NC(=O)[C@H](CC(C)C)NC(=O)[C@@H](Cc2ccccc2)NC(=O)[C@H](CCN)NC1=O)[C@@H](C)O [Analog 3, nonanoyl-Dab-Thr-Arg-Cys-Dab-Phe-Leu-Dab-Dab-Cys] (Nonanoyl-[Dab]TRC[Dab][dF]L[Dab][Dab]C-NH2; disulfide 4-10) | – | – | – | MIC S. aureus (S. aureus ATTC 6538): >32 µg/mL; MIC P. aeruginosa (P. aeruginosa ATTC 9027): 4 µg/mL (≈ 3.13 µM); MIC E. coli (E. coli ATTC 8739): 8 µg/mL (≈ 6.25 µM)
22 | CCCCCCCCC(=O)N[C@@H](CCN)C(=O)N[C@H](C(=O)N[C@@H](CCCNC(=N)N)C(=O)N[C@H]1CSSC[C@@H](C(N)=O)NC(=O)[C@H](CCN)NC(=O)[C@H](CCCNC(=N)N)NC(=O)[C@H](CC(C)C)NC(=O)[C@@H](Cc2ccccc2)NC(=O)[C@H](CCN)NC1=O)[C@@H](C)O [Analog 6, nonanoyl-Dab-Thr-Arg-Cys-Dab-Phe-Leu-Arg-Dab-Cys] (Nonanoyl-[Dab]TRC[Dab][dF]LR[Dab]C-NH2; disulfide 4-10) | – | – | – | MIC P. aeruginosa (P. aeruginosa ATTC 9027): 8 µg/mL (≈ 5.99 µM); MIC E. coli (E. coli ATTC 8739): 8 µg/mL (≈ 5.99 µM)
23 | CCCCCCCCC(=O)N[C@@H](CCN)C(=O)N[C@H](C(=O)N[C@@H](CCN)C(=O)N[C@H]1CSSC[C@@H](C(N)=O)NC(=O)[C@H](CCN)NC(=O)[C@H](CCN)NC(=O)[C@H](CC(C)C)NC(=O)[C@@H](Cc2ccccc2)NC(=O)[C@H](CCN)NC1=O)[C@@H](C)O [Analog 1, nonanoyl-Dab-Thr-Dab-Cys-Dab-Phe-Leu-Dab-Dab-Cys] (Nonanoyl-[Dab]T[Dab]C[Dab][dF]L[Dab][Dab]C-NH2; disulfide 4-10) | – | – | – | MIC P. aeruginosa (P. aeruginosa ATTC 9027): 8 µg/mL (≈ 6.54 µM); MIC E. coli (E. coli ATTC 8739): 4 µg/mL (≈ 3.27 µM)
24 | C9-Arg-Thr-Arg-Cys-Dab-Phe-Leu-Dab-Dab-Cys [Analog 7] | 32 | 32 | 32 | –
25 | C9-Dab[(C=NH)NH2]-Thr-Dab-Cys-Dab-Phe-Leu-Dab[(C=NH)NH2]-Dab-Cys [Analog 15] | > 32 | 8 | 4 | –
26 | C9-Arg-Thr-Arg-Cys-Arg-Phe-Leu-Arg-Dab-Cys (RTRCRFLR; not fully specified; C9 acyl; Dab-Cys C-terminal; printed: Arg-Thr-Arg-Cys-Arg-Phe-Leu-Arg-) [Analog 11] | 16 | 128 | 16 | –
27 | C9-Orn-Thr-Dab-Cys-Dab-Phe-Leu-Orn-Dab-Cys [Analog 35] | 64 | 16 | 16 | –
28 | C9-Arg-Thr-Dab-Cys-Dab-Trp-Leu-Arg-Dab-Cys [Analog 28] | 8 | 8 | 4 | –
29 | CCCCCCCCC(=O)N[C@@H](CCCNC(=N)N)C(=O)N[C@H](C(=O)N[C@@H](CCCNC(=N)N)C(=O)N[C@H]1CSSC[C@@H](C(N)=O)NC(=O)[C@H](CCCNC(=N)N)NC(=O)[C@H](CCCNC(=N)N)NC(=O)[C@H](CC(C)C)NC(=O)[C@@H](Cc2ccccc2)NC(=O)[C@H](CCN)NC1=O)[C@@H](C)O [Analog 10, nonanoyl-Arg-Thr-Arg-Cys-Dab-Phe-Leu-Arg-Arg-Cys] (Nonanoyl-RTRC[Dab][dF]LRRC-NH2; disulfide 4-10) | – | – | – | MIC S. aureus (S. aureus ATTC 6538): 32 µg/mL (≈ 22.1 µM); MIC P. aeruginosa (P. aeruginosa ATTC 9027): 16 µg/mL (≈ 11.1 µM); MIC E. coli (E. coli ATTC 8739): 32 µg/mL (≈ 22.1 µM)
30 | C9-Arg-Thr-Dab-Cys-Dab-Phe-Met-Arg-Dab-Cys [Analog 21] | > 32 | 8 | – | –
